Laboratory results as given in patent publication US11883395B2 (priority 2020, dated 2024).

Test system: human coronavirus (hCOV)-OC43
Type: cell-based

O=C1O[C@H]2[C@@H]3OC(=O)c4cc(O)c(O)c(O)c4-c4c(O)c(O)c5oc(=O)c6c(c(O)c(O)c7oc(=O)c4c5c76)-c4c(cc(O)c(O)c4O)C(=O)OC[C@H]3OC(O)[C@@H]2OC(=O)c2cc(O)c(O)c(O)c2-c2c1cc(O)c(O)c2O (mixture of isomers) [punicalagin]
significantly decreased: hCoV-OC43 envelope protein mRNA level | hCoV-OC43 membrane protein mRNA level | hCoV-OC43 spike protein mRNA level

O=C(C1CC1)N1CCN(Cn2sc3ccccc3c2=O)CC1 [LOC13, 2-[[4-(cyclopropylcarbonyl)-1-piperazinyl]methyl]-1,2-benzisothiazol-3(2H)-one]
significantly decreased: hCoV-OC43 envelope protein mRNA level | hCoV-OC43 membrane protein mRNA level | hCoV-OC43 spike protein mRNA level
